# Laboratory results published in PubChem BioAssay (NCI).
#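 All cell lines were grown in 96-well plates and treated with compound for 48 hours. TGI marks complete inhibition of growth.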
# How the values were obtained:
# Assay in all cases: NCI tumour cell line growth inhibition, 48 h
# 786-0 renal = system: 786-0 renal
# A498 renal = system: A498 renal
# A549 NSCLC = system: A549 NSCLC
# ACHN renal = system: ACHN renal
# CAKI-1 renal = system: CAKI-1 renal
# COLO 205 colon = system: COLO 205 colon
# DMS 114 small cell lung = system: DMS 114 small cell lung
# DMS 273 small cell lung = system: DMS 273 small cell lung
# EKVX NSCLC = system: EKVX NSCLC
# HCC-2998 colon = system: HCC-2998 colon
# HCT-116 colon = system: HCT-116 colon
# HCT-15 colon = system: HCT-15 colon
# HL-60(TB) leukemia = system: HL-60(TB) leukemia
# HOP-18 NSCLC = system: HOP-18 NSCLC
# HOP-62 NSCLC = system: HOP-62 NSCLC
# HOP-92 NSCLC = system: HOP-92 NSCLC
# HT29 colon = system: HT29 colon
# IGROV1 ovarian = system: IGROV1 ovarian
# KM12 colon = system: KM12 colon
# KM20L2 colon = system: KM20L2 colon
# LXFL 529 NSCLC = system: LXFL 529 NSCLC
# M14 melanoma = system: M14 melanoma
# M19-MEL melanoma = system: M19-MEL melanoma
# MALME-3M melanoma = system: MALME-3M melanoma
# MOLT-4 leukemia = system: MOLT-4 leukemia
# NCI-H226 lung = system: NCI-H226 lung
# NCI-H23 lung = system: NCI-H23 lung
# NCI-H460 lung = system: NCI-H460 lung
# NCI-H522 lung = system: NCI-H522 lung
# OVCAR-3 ovarian = system: OVCAR-3 ovarian
# OVCAR-4 ovarian = system: OVCAR-4 ovarian
# OVCAR-5 ovarian = system: OVCAR-5 ovarian
# OVCAR-8 ovarian = system: OVCAR-8 ovarian
# RXF 393 renal = system: RXF 393 renal
# RXF-631 renal = system: RXF-631 renal
# SF-268 CNS = system: SF-268 CNS
# SF-295 CNS = system: SF-295 CNS
# SF-539 CNS = system: SF-539 CNS
# SK-MEL-2 melanoma = system: SK-MEL-2 melanoma
# SK-MEL-28 melanoma = system: SK-MEL-28 melanoma
# SK-MEL-5 melanoma = system: SK-MEL-5 melanoma
# SK-OV-3 ovarian = system: SK-OV-3 ovarian
# SN12C renal = system: SN12C renal
# SNB-19 CNS = system: SNB-19 CNS
# SNB-75 CNS = system: SNB-75 CNS
# SNB-78 CNS = system: SNB-78 CNS
# SR leukemia = system: SR leukemia
# SW-620 colon = system: SW-620 colon
# TK-10 renal = system: TK-10 renal
# U251 CNS = system: U251 CNS
# UACC-257 melanoma = system: UACC-257 melanoma
# UACC-62 melanoma = system: UACC-62 melanoma
# UO-31 renal = system: UO-31 renal
# XF 498 CNS = system: XF 498 CNS
# CCRF-CEM leukemia = system: CCRF-CEM leukemia
# DLD-1 colon = system: DLD-1 colon
# K-562 leukemia = system: K-562 leukemia
# LOX IMVI melanoma = system: LOX IMVI melanoma
# RPMI-8226 leukemia = system: RPMI-8226 leukemia
structure (smiles),measurement,setting,value
NC(=S)N/N=C1/C(=O)N(c2ccccc2)C(=O)C1C(=O)Nc1ccccc1 (stereo not given),TGI,786-0 renal,> 100 µM
same,TGI,A498 renal,> 100 µM
same,TGI,A549 NSCLC,> 100 µM
same,TGI,ACHN renal,> 100 µM
same,TGI,CAKI-1 renal,> 100 µM
same,TGI,COLO 205 colon,> 100 µM
same,TGI,DMS 114 small cell lung,> 100 µM
same,TGI,DMS 273 small cell lung,> 100 µM
same,TGI,EKVX NSCLC,> 100 µM
same,TGI,HCC-2998 colon,> 100 µM
same,TGI,HCT-116 colon,> 100 µM
same,TGI,HCT-15 colon,> 100 µM
same,TGI,HL-60(TB) leukemia,> 100 µM
same,TGI,HOP-18 NSCLC,> 100 µM
same,TGI,HOP-62 NSCLC,> 100 µM
same,TGI,HOP-92 NSCLC,> 100 µM
same,TGI,HT29 colon,> 100 µM
same,TGI,IGROV1 ovarian,> 100 µM
same,TGI,KM12 colon,> 100 µM
same,TGI,KM20L2 colon,> 100 µM
same,TGI,LXFL 529 NSCLC,> 100 µM
same,TGI,M14 melanoma,> 100 µM
same,TGI,M19-MEL melanoma,> 100 µM
same,TGI,MALME-3M melanoma,> 100 µM
same,TGI,MOLT-4 leukemia,> 100 µM
same,TGI,NCI-H226 lung,> 100 µM
same,TGI,NCI-H23 lung,> 100 µM
same,TGI,NCI-H460 lung,> 100 µM
same,TGI,NCI-H522 lung,> 100 µM
same,TGI,OVCAR-3 ovarian,> 100 µM
same,TGI,OVCAR-4 ovarian,> 100 µM
same,TGI,OVCAR-5 ovarian,> 100 µM
same,TGI,OVCAR-8 ovarian,> 100 µM
same,TGI,RXF 393 renal,> 100 µM
same,TGI,RXF-631 renal,> 100 µM
same,TGI,SF-268 CNS,> 100 µM
same,TGI,SF-295 CNS,> 100 µM
same,TGI,SF-539 CNS,> 100 µM
same,TGI,SK-MEL-2 melanoma,> 100 µM
same,TGI,SK-MEL-28 melanoma,> 100 µM
same,TGI,SK-MEL-5 melanoma,> 100 µM
same,TGI,SK-OV-3 ovarian,> 100 µM
same,TGI,SN12C renal,> 100 µM
same,TGI,SNB-19 CNS,> 100 µM
same,TGI,SNB-75 CNS,> 100 µM
same,TGI,SNB-78 CNS,> 100 µM
same,TGI,SR leukemia,> 100 µM
same,TGI,SW-620 colon,> 100 µM
same,TGI,TK-10 renal,> 100 µM
same,TGI,U251 CNS,> 100 µM
same,TGI,UACC-257 melanoma,> 100 µM
same,TGI,UACC-62 melanoma,> 100 µM
same,TGI,UO-31 renal,> 100 µM
same,TGI,XF 498 CNS,> 100 µM
NC(=S)N/N=C(/CCN1CCCC1)CC(C1=C(O)C2=CCCCC2OC1=O)c1ccccc1 (stereo not given),TGI,786-0 renal,> 100 µM
same,TGI,A498 renal,> 100 µM
same,TGI,A549 NSCLC,> 100 µM
same,TGI,ACHN renal,> 100 µM
same,TGI,CAKI-1 renal,> 100 µM
same,TGI,CCRF-CEM leukemia,> 100 µM
same,TGI,COLO 205 colon,> 100 µM
same,TGI,DLD-1 colon,> 100 µM
same,TGI,EKVX NSCLC,> 100 µM
same,TGI,HCC-2998 colon,> 100 µM
same,TGI,HCT-116 colon,> 100 µM
same,TGI,HCT-15 colon,> 100 µM
same,TGI,HL-60(TB) leukemia,> 100 µM
same,TGI,HOP-18 NSCLC,> 100 µM
same,TGI,HOP-62 NSCLC,> 100 µM
same,TGI,HOP-92 NSCLC,> 100 µM
same,TGI,HT29 colon,> 100 µM
same,TGI,IGROV1 ovarian,> 100 µM
same,TGI,K-562 leukemia,> 100 µM
same,TGI,KM12 colon,> 100 µM
same,TGI,KM20L2 colon,> 100 µM
same,TGI,LOX IMVI melanoma,> 100 µM
same,TGI,LXFL 529 NSCLC,> 100 µM
same,TGI,M14 melanoma,> 100 µM
same,TGI,M19-MEL melanoma,> 100 µM
same,TGI,MALME-3M melanoma,> 100 µM
same,TGI,NCI-H226 lung,> 100 µM
same,TGI,NCI-H23 lung,> 100 µM
same,TGI,NCI-H460 lung,> 100 µM
same,TGI,NCI-H522 lung,> 100 µM
same,TGI,OVCAR-3 ovarian,> 100 µM
same,TGI,OVCAR-4 ovarian,> 100 µM
same,TGI,OVCAR-5 ovarian,> 100 µM
same,TGI,OVCAR-8 ovarian,> 100 µM
same,TGI,RPMI-8226 leukemia,> 100 µM
same,TGI,RXF 393 renal,> 100 µM
same,TGI,SF-268 CNS,> 100 µM
same,TGI,SF-295 CNS,> 100 µM
same,TGI,SF-539 CNS,> 100 µM
same,TGI,SK-MEL-2 melanoma,> 100 µM
same,TGI,SK-MEL-5 melanoma,> 100 µM
same,TGI,SK-OV-3 ovarian,> 100 µM
same,TGI,SN12C renal,> 100 µM
same,TGI,SNB-19 CNS,> 100 µM
same,TGI,SNB-75 CNS,> 100 µM
same,TGI,SNB-78 CNS,> 100 µM
same,TGI,SR leukemia,> 100 µM
same,TGI,SW-620 colon,> 100 µM
same,TGI,TK-10 renal,> 100 µM
same,TGI,U251 CNS,> 100 µM
same,TGI,UACC-257 melanoma,> 100 µM
same,TGI,UACC-62 melanoma,> 100 µM
same,TGI,UO-31 renal,> 100 µM
same,TGI,XF 498 CNS,> 100 µM
CC(C(=O)c1ccc(O)cc1)C1(O)C(=O)Nc2c(Cl)cc(Cl)cc21 (stereo not given),TGI,786-0 renal,> 100 µM
same,TGI,A498 renal,> 85.3 µM
same,TGI,A549 NSCLC,> 100 µM
same,TGI,ACHN renal,28.3 µM
same,TGI,CAKI-1 renal,> 100 µM
same,TGI,CCRF-CEM leukemia,74.7 µM
same,TGI,COLO 205 colon,> 100 µM
same,TGI,DLD-1 colon,> 100 µM
same,TGI,DMS 114 small cell lung,24.2 µM
same,TGI,DMS 273 small cell lung,> 100 µM
same,TGI,EKVX NSCLC,> 100 µM
same,TGI,HCC-2998 colon,> 100 µM
same,TGI,HCT-116 colon,> 100 µM
same,TGI,HCT-15 colon,> 100 µM
same,TGI,HL-60(TB) leukemia,50.2 µM
same,TGI,HOP-62 NSCLC,> 100 µM
same,TGI,HOP-92 NSCLC,> 100 µM
same,TGI,HT29 colon,> 100 µM
same,TGI,IGROV1 ovarian,> 100 µM
same,TGI,K-562 leukemia,32.6 µM
same,TGI,KM12 colon,> 100 µM
same,TGI,KM20L2 colon,> 100 µM
same,TGI,LOX IMVI melanoma,> 67.8 µM
same,TGI,LXFL 529 NSCLC,> 93.7 µM
same,TGI,M14 melanoma,> 61.2 µM
same,TGI,M19-MEL melanoma,57.6 µM
same,TGI,MALME-3M melanoma,> 100 µM
same,TGI,MOLT-4 leukemia,> 100 µM
same,TGI,NCI-H226 lung,> 100 µM
same,TGI,NCI-H23 lung,> 100 µM
same,TGI,NCI-H460 lung,> 100 µM
same,TGI,NCI-H522 lung,57.8 µM
same,TGI,OVCAR-3 ovarian,> 84.3 µM
same,TGI,OVCAR-4 ovarian,50.5 µM
same,TGI,OVCAR-5 ovarian,> 100 µM
same,TGI,OVCAR-8 ovarian,> 100 µM
same,TGI,RPMI-8226 leukemia,71.5 µM
same,TGI,RXF 393 renal,68.8 µM
same,TGI,RXF-631 renal,> 100 µM
same,TGI,SF-268 CNS,> 100 µM
same,TGI,SF-295 CNS,> 100 µM
same,TGI,SF-539 CNS,> 100 µM
same,TGI,SK-MEL-2 melanoma,> 100 µM
same,TGI,SK-MEL-28 melanoma,78.1 µM
same,TGI,SK-MEL-5 melanoma,31.4 µM
same,TGI,SK-OV-3 ovarian,> 100 µM
same,TGI,SN12C renal,> 100 µM
same,TGI,SNB-19 CNS,> 100 µM
same,TGI,SNB-75 CNS,> 100 µM
same,TGI,SNB-78 CNS,> 85.5 µM
same,TGI,SW-620 colon,> 100 µM
same,TGI,TK-10 renal,> 100 µM
same,TGI,U251 CNS,> 100 µM
same,TGI,UACC-257 melanoma,33.3 µM
same,TGI,UACC-62 melanoma,21.7 µM
same,TGI,UO-31 renal,> 100 µM
same,TGI,XF 498 CNS,47.8 µM
